From patent US20120003668A1, “HIGH RESOLUTION COMPLEX STRUCTURE AND ALLOSTERIC EFFECTS OF LOW MOLECULAR WEIGHT ACTIVATORS ON THE PROTEIN KINASE PDK1” (UNIVERSITAET DES SAARLANDES, priority 2008, published 2012)
“Also recorded” adds a separate entry of the source.

T1: His-PDK1 50-556 / biotin-PIFtide interaction (Homo sapiens, UniProt O15530)
T1 sequence (O15530 50-556): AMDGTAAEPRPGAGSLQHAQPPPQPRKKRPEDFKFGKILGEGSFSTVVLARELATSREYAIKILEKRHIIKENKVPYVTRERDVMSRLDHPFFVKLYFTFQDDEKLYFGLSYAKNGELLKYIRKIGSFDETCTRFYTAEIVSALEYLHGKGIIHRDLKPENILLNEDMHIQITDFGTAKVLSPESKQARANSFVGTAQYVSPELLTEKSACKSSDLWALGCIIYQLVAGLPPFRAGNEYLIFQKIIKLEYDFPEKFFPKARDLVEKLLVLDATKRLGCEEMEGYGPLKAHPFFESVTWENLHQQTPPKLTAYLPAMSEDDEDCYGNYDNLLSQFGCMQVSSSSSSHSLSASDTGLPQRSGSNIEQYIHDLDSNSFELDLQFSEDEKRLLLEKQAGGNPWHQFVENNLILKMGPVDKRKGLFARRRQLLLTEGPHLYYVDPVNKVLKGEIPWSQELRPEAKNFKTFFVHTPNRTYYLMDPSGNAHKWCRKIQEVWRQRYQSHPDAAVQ

T2: PDK1 50-359 [Y288G;Q292A] (Homo sapiens, UniProt O15530, Q292A/Y288G)
T2 sequence (O15530 with tags, fused parts or gaps Y288G/Q292A): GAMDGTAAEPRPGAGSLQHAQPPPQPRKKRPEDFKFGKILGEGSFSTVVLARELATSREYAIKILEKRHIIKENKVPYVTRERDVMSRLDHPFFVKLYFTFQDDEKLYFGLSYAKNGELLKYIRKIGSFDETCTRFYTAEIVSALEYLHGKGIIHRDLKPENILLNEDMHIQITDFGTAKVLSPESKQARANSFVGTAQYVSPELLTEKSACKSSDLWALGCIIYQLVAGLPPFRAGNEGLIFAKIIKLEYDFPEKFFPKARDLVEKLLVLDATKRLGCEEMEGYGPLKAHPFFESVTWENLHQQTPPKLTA

T3: PDK1 catalytic domain (Homo sapiens, UniProt O15530)
T3 construct: The catalytic domain (CD) of PDK1 50-359 and its mutants
T3 sequence (O15530 50-359): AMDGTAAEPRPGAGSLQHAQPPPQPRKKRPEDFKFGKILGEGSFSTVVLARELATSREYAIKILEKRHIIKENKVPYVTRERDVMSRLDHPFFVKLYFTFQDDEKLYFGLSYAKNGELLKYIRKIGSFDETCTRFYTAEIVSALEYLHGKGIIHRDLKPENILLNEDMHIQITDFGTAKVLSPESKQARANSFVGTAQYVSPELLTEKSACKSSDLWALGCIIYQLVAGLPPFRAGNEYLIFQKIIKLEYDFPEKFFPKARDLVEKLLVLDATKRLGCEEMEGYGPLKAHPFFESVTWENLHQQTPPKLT

T4: PDK1 CD (50-359) [Thr226Trp] (human, UniProt O15530 50-359)
T4 construct: also called PDK1[Thr226Trp]; PDK1 Thr226Trp
T4 sequence: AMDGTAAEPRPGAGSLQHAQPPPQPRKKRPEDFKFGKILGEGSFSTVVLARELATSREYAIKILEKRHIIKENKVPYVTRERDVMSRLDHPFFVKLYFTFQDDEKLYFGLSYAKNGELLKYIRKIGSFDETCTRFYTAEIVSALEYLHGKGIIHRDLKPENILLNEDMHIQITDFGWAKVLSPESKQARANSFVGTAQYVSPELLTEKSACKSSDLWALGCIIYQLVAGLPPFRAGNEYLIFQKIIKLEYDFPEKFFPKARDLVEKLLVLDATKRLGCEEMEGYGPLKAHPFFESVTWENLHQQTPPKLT

T5: PDK1 CD (50-359) [Phe224Trp] (human, UniProt O15530 50-359)
T5 construct: also called PDK1[Phe224Trp]; PDK1 Phe224Trp
T5 sequence: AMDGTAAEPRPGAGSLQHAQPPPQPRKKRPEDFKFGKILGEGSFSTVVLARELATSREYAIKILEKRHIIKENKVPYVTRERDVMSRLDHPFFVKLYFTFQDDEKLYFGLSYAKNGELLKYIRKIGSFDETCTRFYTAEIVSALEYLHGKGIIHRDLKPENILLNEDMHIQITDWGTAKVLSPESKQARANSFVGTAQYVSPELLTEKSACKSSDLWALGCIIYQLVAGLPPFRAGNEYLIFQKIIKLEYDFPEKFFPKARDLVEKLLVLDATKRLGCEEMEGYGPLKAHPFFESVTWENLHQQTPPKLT

T6: PDK1 CD (50-359) wt (human, UniProt O15530 51-360)
T6 construct: also called PDK1 50-359; PDK1 CD wt
T6 sequence: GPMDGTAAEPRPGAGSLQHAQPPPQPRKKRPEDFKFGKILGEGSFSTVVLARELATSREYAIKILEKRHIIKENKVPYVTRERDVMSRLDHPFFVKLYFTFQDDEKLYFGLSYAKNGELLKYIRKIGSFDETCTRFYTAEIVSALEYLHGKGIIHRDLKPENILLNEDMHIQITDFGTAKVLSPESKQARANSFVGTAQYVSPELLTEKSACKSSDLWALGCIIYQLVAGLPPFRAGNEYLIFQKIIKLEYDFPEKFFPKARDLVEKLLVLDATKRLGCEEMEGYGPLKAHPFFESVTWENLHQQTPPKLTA


Legend:
[1] = target: T1, His-PDK1 50-556 / biotin-PIFtide interaction; test: alpha-screen displacement of the His-PDK1 biotin-PIFtide interaction; format: binding
Description: To study if low molecular weight compounds displaced the interaction, the compounds were incubated with the mix and the displacement of the His-PDK1 biotin-PIFtide interaction measured as a decrease in light emission.

[2] = target: T2, PDK1 50-359 [Y288G;Q292A]; test: Amide 1H/2H exchange and mass spectrometry
Description: For local exchange analysis, the labeled proteins were digested with pepsin and the resulting polypeptides analyzed by tandem mass-spectrometry (LC-MS/MS) for their incorporation of deuterium atoms. The graphics represent the number of deuterium atoms incorporated into each polypeptide upon the stated incubation time in deuterated water. […] Over time, amide hydrogen atoms exchanged for deuteriums and the molecular weight of the protein increased. We repeated the ^1H/^2H exchange experiments at four different incubation times: 1, 5, 15 and 45 minutes. […] In the presence of peptide or small compounds, protein and ligand solution were pre-incubated on ice for 50 min before the mixture was diluted into labeling buffer. After the exchange reaction, samples were loaded on a pepsin column for one minute for digestion into peptides and samples quenched at each time point. They were then subjected to liquid chromatography for separation and analyzed by tandem mass-spectrometry (LC-MS/MS) for their incorporation of deuterium atoms. The entire plumbing system was immersed in an ice bath. 61 polypeptides were identified with overlapping regions, covering 80% of PDK1 sequence. As it is not possible to predict the cleavage sites of pepsin in the PDK1 sequence, it was necessary to identify the peptides generated by pepsin digestion for local-exchange analysis.

PDK1 catalytic domain = target: T3, PDK1 catalytic domain; test: TNP-ATP fluorescence probing of the ATP binding site conformation; format: biochemical
Source text: Probing the conformation of the ATP binding site in PDK1: The activation of PDK1 by HM-polypeptides and small compounds is due to a change in the conformation of the enzyme. We probed the conformation of the ATP binding site in PDK1 by scanning the steady-state fluorescence of TNP-ATP/PDK1, in the presence or absence of P-HM-polypeptides, PIFtide, or small molecular weight compounds. Data were obtained in a Varian Cary Eclipse spectrofluorometer (excitation λ=479 nm; emission scanning, λ=500-600 nm; excitation slit=10 nm; emission slit=10 nm) at a rate of 200 nm/min, with 150 datapoints/100 nm scanning and 0.3 s averaging time. The incubation was performed at 20° C. in a buffer containing 50 mM Tris pH 7.5, 0.1 mM EDTA, 187 mM NaCl, 40 μM TNP-ATP, 15 μM PDK1 catalytic domain, 1 mM DTT and 1% DMSO. In the absence of PDK1, TNP-ATP produced approximately 1.5 arbitrary units (a.u.) of fluorescence, and the inclusion of PDK1 increased its fluorescence intensity to approximately 3.3 a.u. […] In preliminary tests, inclusion of 2.5 mM MgCl2 in the assay mix produced similar results. Data for each condition are the average of 3 scans.

[3] = target: T4, PDK1 CD (50-359) [Thr226Trp]; test: SPR competition (BiaCore): PDK1 [Thr226Trp] pre-incubated with PIFtide, then injected over immobilised biotin-P-HM-S6K; PIFtide displaces PDK1 from biotin-P-HM-S6K
[4] = target: T5, PDK1 CD (50-359) [Phe224Trp]; test: SPR competition (BiaCore): PDK1 [Phe224Trp] pre-incubated with PIFtide, then injected over immobilised biotin-P-HM-S6K; PIFtide displaces PDK1 from biotin-P-HM-S6K
PDK1 CD (50-359) wt = target: T6, PDK1 CD (50-359) wt; test: SPR competition (BiaCore): PDK1 CD wt pre-incubated with PIFtide, then injected over immobilised biotin-P-HM-S6K; PIFtide displaces PDK1 from biotin-P-HM-S6K

displacement of the binding of PIFtide to PDK1 [1] | decreased 2H incorporation, peptide 108-121 [2] | 2H less incorporated, peptide 108-134 ([2]; first time point) | 2H less incorporated, peptide 218-247 ([2]; first time point) | 2H less incorporated, peptide 108-134 ([2]; following time points) | 2H less incorporated, peptide 146-155 ([2]; time points 15 and 45) | maximum fluorescence intensity of TNP-ATP/PDK1 (PDK1 catalytic domain; 167 μM compound, % of maximal TNP-ATP fluorescence with 15 μM PDK1 CD) | binding result [3] | binding result [4] | binding result (PDK1 CD (50-359) wt) | Molecule | effect on TNP-ATP fluorescence intensity in the presence of PDK1 (PDK1 catalytic domain; 40 μM TNP-ATP, 15 μM PDK1 catalytic domain)
could be displaced | 1 ^2H | 4 ^2H | 1.5 ^2H | 2 ^2H | 1 ^2H | 60% |  |  |  | O=C(O)/C=C(/CCc1ccc(Br)cc1F)c1ccccc1 [PS08] | concentration dependent decrease; also recorded: concentration-dependent decrease
 |  |  |  |  |  |  | binds | binds | binds | REPRILSEEEQEMFRDFDYIADWC (also called HM-polypeptide PIFtide) [PIFtide] | 
